Results from PMC6985109, “Cellular apoptosis and necrosis as therapeutic targets for novel Eugenol Tosylate Congeners against Candida albicans” (Scientific Reports, 2020).
≈ marks a conversion by molar mass, not a printed value. Like-named read-outs stand apart in the source and are kept apart here.

Legend:
[1] = system: fluconazole susceptible and resistant C. albicans strains; assay: Broth microdilution antifungal susceptibility, ranges over strains; type: cell-based; conditions: Candida albicans
Protocol: (§1) In this study, 10 clinical Candida albicans isolates, comprising of 5 fluconazole susceptible and 5 fluconazole resistant, were used. C. albicans SC5314 was also used as a control laboratory strain. Clinical strains used in this study were stored at −80 °C supplemented with 20% glycerol in the Department of Clinical Microbiology and Infectious Diseases, University of the Witwatersrand, Johannesburg and were previously collected under the ethical clearance number M000402, obtained from the Human Research Ethics Committee, University of the Witwatersrand. For experimental purpose each strain from glycerol stock was recovered on Sabouraud Dextrose (SDA) agar plates at 37 °C for 24 h.
(§2) Minimum Inhibitory Concentration (MIC) and Minimum Fungicidal Concentrations (MFC) of all newly synthesized eugenol-tosylate congeners (ETC-1–ETC-7) against C. albicans strains were determined by broth microdilution assay in accordance with the approved guidelines described by Clinical and Laboratory Standards Institute (CLSI) guidelines M27-A[38]. The test compounds were prepared in 1% DMSO to a stock concentration of 8192 µg/ml. Two-fold dilutions of test compounds (100 µL) were prepared in 96-well flat-bottom microtiter plates, inoculated with 100 µl of inoculum (1 × 10^6 cells/mL) and incubated at 37 °C for 24 hours. In every set of experiment, positive control (fluconazole), negative vehicle control (1% DMSO) and culture control (media and cells only) were included. MIC’s were determined visibly as the lowest concentration of the test compounds that inhibited growth of test organism. To determine MFC, each well without visible growth was sub-cultured onto agar plates. Concentration in the first well with no growth on plate was taken as MFC. […] The experiment was performed in triplicate to validate the results.

[2] = system: Candida albicans 4563; assay: Broth microdilution antifungal susceptibility (MIC/MFC); type: cell-based; conditions: strain 4563, FLC susceptible; for MIC: 37 °C, 24 h
Protocol: as §1, §2

[3] = system: Candida albicans 4180; assay: as above; type: cell-based; conditions: strain 4180, FLC susceptible; for MIC: 37 °C, 24 h
Protocol: as §1, §2

[4] = system: Candida albicans 4122; assay: as above; type: cell-based; conditions: strain 4122, FLC resistant; for MIC: 37 °C, 24 h
Protocol: as §1, §2

[5] = system: Candida albicans SC5314; assay: as above; type: cell-based; conditions: SC5314, FLC susceptible; for MIC: 37 °C, 24 h
Protocol: as §1, §2

[6] = system: Candida albicans 5112; assay: as above; type: cell-based; conditions: strain 5112, FLC resistant; for MIC: 37 °C, 24 h
Protocol: as §1, §2

[7] = system: Candida albicans 4175; assay: as above; type: cell-based
Protocol: as §1, §2

[8] = system: Candida albicans 4179; assay: as above; type: cell-based; conditions: strain 4179, FLC susceptible; for MIC: 37 °C, 24 h
Protocol: as §1, §2

[9] = system: Candida albicans 4106; assay: as above; type: cell-based; conditions: strain 4106, FLC resistant; for MIC: 37 °C, 24 h
Protocol: as §1, §2

[10] = system: Candida albicans 4576; assay: as above; type: cell-based; conditions: strain 4576, FLC susceptible; for MIC: 37 °C, 24 h
Protocol: as §1, §2

[11] = system: Candida albicans 4324; assay: as above; type: cell-based; conditions: strain 4324, FLC resistant; for MIC: 37 °C, 24 h
Protocol: as §1, §2

[12] = system: Candida albicans 4135; assay: as above; type: cell-based; conditions: strain 4135, FLC resistant; for MIC: 37 °C, 24 h
Protocol: as §1, §2

[13] = system: horse red blood cells; assay: Cytotoxicity by haemolytic assay; type: cell-based
Protocol: The cytotoxicity of the test compounds was determined on horse red blood cells (NHLS, Johannesburg, South Africa) by testing the haemolytic activity of these compounds using the method described previously, with some modifications. Briefly, in a sterile 15 ml falcon tube 5 ml of horse blood was centrifuged at 2000 × rpm for 10 minutes. The supernatant was discarded, and the cell pellet was washed three times with chilled PBS solution. The final pellet was used to yield a 10% RBC suspension with chilled PBS. The 10% suspension were further diluted to 1:10 in PBS, then 100 µl of this suspension was added to different concentration of test compounds (0.5 × MIC, 1 × MIC and 2 × MIC) in 1.5 ml tubes. The tubes were then incubated for 60 minutes at 37 °C followed by centrifugation at 2000 × rpm for 10 minutes. From each tube, 200 µl of the supernatant was transferred to a flat-bottomed 96-well microtiter plate and absorbance was monitored at 450 nm spectrophotometrically with an iMark microplate reader (Bio-Rad laboratories, CA, USA). Triton X-100 (1%) and PBS were used as positive and negative controls respectively. The percentage of haemolysis was calculated by the following equation: %haemolysis=A450oftestcompoundtreatedsample−A450ofbuffertreatedsample/A450of1%TritonX−100treatedsample−A450ofbuffertreatedsample×100%

[14] = system: C. albicans 4175, C. albicans 5112 and C. albicans SC5314; assay: FITC annexin V/PI staining flow cytometry, ranges over three strains; type: cell-based, Candida albicans; conditions: 250 μmol/L, positive control
Protocol: (§3) To study the effect of test compounds on apoptotic markers protoplasts were prepared as described previously, with modifications. Briefly, mid-exponential phase cells were harvested and exposed to various concentrations of test compounds (0.5 × MIC, 1 × MIC and 2×MIC) for 3 h. The cells were then washed twice with protoplast buffer- I (1 M sorbitol, 50 mM tris base, 10 mM MgCl2 and 30 mM DTT) and incubated in the same buffer for 15 minutes at 25 °C, followed by centrifugation at 1500 rpm for 5 minutes. Supernatant was removed and cells were incubated with buffer- II (1 M sorbitol, 50 mM tris base, 10 mM MgCl2 and 1 mM DTT) supplemented with lyticase enzyme (≥1 µg/mL) used to digest the cell wall for 1 h at 25 °C. Buffer- II were removed by centrifugation and then cells were incubated with buffer- III (1 M sorbitol, 50 mM tris base and 10 mM MgCl2) for 20 minutes at room temperature. After the incubation cells were again centrifuged at 1500 rpm for 5 minutes and supernatant was discarded. Protoplasts then finally washed once with PBS and re-suspended in the same for further use. In each washing steps the volume of these protoplast buffers were 5 times to cell volume with pH 7.4.
This assay was used to identify early apoptosis by detecting movement of phosphatidylserine (PS) from the inner to the outer leaflet of plasma membrane. FITC annexin V Apoptosis Detection Kit I (BD Biosciences, CA, USA) was used according to the manufacturer’s instructions. Protoplasts of C. albicans cells treated with different concentrations of the test compounds, as mentioned in above section, were resuspended in 1X annexin V binding buffer ([…]) at a concentration of 1 × 10^6 cells per ml. To the 100 µl of this solution, 5 µl each of FITC annexin V and propidium iodide (PI) was added. Tubes were gently vortexed and incubated for 15 minutes at 25 °C in the dark. After incubation, 400 µl of 1X annexin V binding buffer was added to each tube and analyzed using the BD LSRFortessa Flow cytometer (Becton Dickinson, NJ, USA). The cell populations in four different quadrants of a quadrant dot plot were analyzed and interpreted as; Q1: necrosis (annexin V^−/PI^+), Q2: late apoptosis (annexin V^+/PI^+), Q3: early apoptosis (annexin V^+/PI^−) and Q4: viable cells (annexin V^−/PI^−), by using software FlowJo_V10.

[15] = system: C. albicans 4175, C. albicans 5112 and C. albicans SC5314; assay: TUNEL assay for DNA damage; type: cell-based, Candida albicans; conditions: 250 μmol/L, positive control
Protocol: as §3, with “Protoplasts then finally washed once with PBS and re-suspended in the same for further use. In each washing steps the volume of these protoplast buffers were 5 times to cell volume with pH 7.4.” left out
TUNEL assay was used to detect the DNA damage, a hallmark for late stages of apoptosis. […] Slides were examined by fluorescence microscopy using Zeiss Laser Scanning Confocal Microscope (LSM) 780 (Carl Zeiss Microscopy, Jena, Germany) with an excitation wavelength of 495 nm and emission wavelength of 519 nm. […] Images were further analyzed by using software ImageJ.

[16] = Candida albicans, strain 4175, FLC susceptible
[17] = Candida albicans, strain 4175, FLC susceptible, 37 °C, 24 h, read-out: MIC
[18] = over the tested C. albicans strains

Molecule | MIC [2] [µg/mL] | MIC [3] [µg/mL] | MIC [4] [µg/mL] | MIC [5] [µg/mL] | MIC [6] [µg/mL] | MIC [8] [µg/mL] | MIC [9] [µg/mL] | MIC [10] [µg/mL] | MIC [11] [µg/mL] | MIC [12] [µg/mL] | MFC [2] [µg/mL] | MFC [3] [µg/mL] | MFC [4] [µg/mL] | MFC [5] [µg/mL] | MFC [6] [µg/mL] | MFC [7, 16] [µg/mL] | MIC [7, 17] [µg/mL] | MFC [8] [µg/mL] | MFC [9] [µg/mL] | MFC [10] [µg/mL] | further results
OC(Cn1cncn1)(Cn1cncn1)c1ccc(F)cc1F [FLC, fluconazole, reference compound] | 0.25 (≈ 0.816 µM) | 0.25 (≈ 0.816 µM) | 32 (≈ 104 µM) | 0.25 (≈ 0.816 µM) | 64 (≈ 209 µM) | 0.25 (≈ 0.816 µM) | 8 (≈ 26.1 µM) | 0.25 (≈ 0.816 µM) | 16 (≈ 52.2 µM) | 32 (≈ 104 µM) |  |  |  |  |  |  |  |  |  |  | MIC ([1]; fluconazole resistant strains, range): 8 to 64 µg/mL (≈ 26.1 to 209 µM); MIC ([1]; fluconazole susceptible strains, range): 0.125 to 0.25 µg/mL (≈ 0.408 to 0.816 µM); MIC ([7]; Candida albicans, 4175, 24 h): 0.125 µg/mL (≈ 0.408 µM)
Triton X-100 [reference compound] |  |  |  |  |  |  |  |  |  |  |  |  |  |  |  |  |  |  |  |  | lysis [13]: 100%
C=CCc1ccc(OS(=O)(=O)c2ccccc2)c(OC)c1 [ETC-2, 2-methoxy-4-(prop-2-en-1-yl)-phenylbenzenesulfonate] | 256 (≈ 841 µM) | 64 (≈ 210 µM) | 256 (≈ 841 µM) | 32 (≈ 105 µM) | 256 (≈ 841 µM) | 128 (≈ 421 µM) | 64 (≈ 210 µM) | 128 (≈ 421 µM) | 128 (≈ 421 µM) | 128 (≈ 421 µM) | 512 (≈ 1680 µM) | 256 (≈ 841 µM) | 512 (≈ 1680 µM) | 64 (≈ 210 µM) | 512 (≈ 1680 µM) | 64 (≈ 210 µM) | 32 (≈ 105 µM) | 256 (≈ 841 µM) | 256 (≈ 841 µM) | 256 (≈ 841 µM) | MFC [11]: 256 µg/mL (≈ 841 µM); MFC [12]: 512 µg/mL (≈ 1680 µM)
C=CCc1ccc(O)c(OC)c1 [EUG, 2-methoxy-4-(prop-2-en-1-yl)phenol, reference compound] | 500 (≈ 3040 µM) | 500 (≈ 3040 µM) | 500 (≈ 3040 µM) | 500 (≈ 3040 µM) | 500 (≈ 3040 µM) | 500 (≈ 3040 µM) | 500 (≈ 3040 µM) | 500 (≈ 3040 µM) | 500 (≈ 3040 µM) | 500 (≈ 3040 µM) | 1000 (≈ 6090 µM) | 1000 (≈ 6090 µM) | 1000 (≈ 6090 µM) | 1000 (≈ 6090 µM) | 1000 (≈ 6090 µM) | 1000 (≈ 6090 µM) | 500 (≈ 3040 µM) | 1000 (≈ 6090 µM) | 1000 (≈ 6090 µM) | 1000 (≈ 6090 µM) | MFC [1, 18]: 1000 µg/mL (≈ 6090 µM); MIC [1, 18]: 500 µg/mL (≈ 3040 µM); MFC [11]: 1000 µg/mL (≈ 6090 µM); MFC [12]: 1000 µg/mL (≈ 6090 µM)
OO [H2O2, reference compound] |  |  |  |  |  |  |  |  |  |  |  |  |  |  |  |  |  |  |  |  | early apoptosis [14]: 32–33%; late apoptosis [14]: 50–51%; necrosis [14]: 6–7%; TUNEL green fluorescence (late apoptotic cells) [15]: increased green fluorescence
